Source: US20050239719A1, “Methods of using and compositions comprising thalidomide for the treatment and management of pulmonary hypertension” (priority 2004, published 2005)

Tests used:
[1] = system: patients with PH (NYHA functional class III); assay: Clinical Study 2: 12-week placebo-controlled study in patients with PH; format: in vivo, human
Experimental: In one embodiment of the invention, thalidomide is administered in a single or divided daily doses in an amount of from about 200 to about 800 mg/day. The compound is administered to patients with PH for 12 weeks, who are subsequently evaluated for a decline in walk distance, dyspnea score, functional class, pulmonary hemodynamic response. The first study enrolls 32 patients with PH. Patients are all in modified New York Heart Association functional class III at the onset of the study. Patents are maximally treated and are stable on conventional therapy, including calcium channel antagonists and diuretics. Two thirds of patients receive 400 mg of thalidomide for four weeks followed by 800 mg of the compound for eight weeks. One third of patients receive placebo. The primary efficacy endpoint is a 6-minute walk distance. Patients receiving the compound of the invention walk an average of 70 meters farther after 12 weeks while placebo patients have a decline in walk distance. In addition, the treated patients have improvements in dyspnea score and functional class compared with placebo patients. Pulmonary hemodynamic measurements reveal decreases in pulmonary arterial pressure and pulmonary vascular resistance, and increase in cardiac output after 12 weeks of the treatment, compared with worsening of pulmonary hemodynamics in placebo patients. All these changes in treated patients are highly significant compared with placebo.

[2] = system: patients with PH, WHO functional class III or IV; assay: Expanded Study: 16-week placebo-controlled study in 213 PH patients; format: in vivo, human
Experimental: On the basis of the results of the above study 2, the clinical study is expanded with additional 213 PH patients for at least 16 weeks. The study is conducted with patients with PH, WHO functional class III or IV. Two hundred thirteen patients are randomized to receive either 200 mg bid or 400 mg bid of thalidomide or placebo in a 1:1:1 ratio. The primary endpoint, a 6-minute walk distance, is evaluated at 16 weeks. The treated patients walk 36.4 meters further at 16 weeks compared to a 7.8 meter reduction in walk distance in the placebo group, for a treatment effect of 44.2 meters. Clinical worsening, defined by death, premature withdrawal from study, hospitalization for worsening of PH or institution of epoprostenol, occur in 37% of placebo-treated patients, compared with 11% of the patients treated with the compound of the invention.

[3] = 12 weeks, compared with placebo patients
[4] = after 12 weeks of treatment, compared with placebo

What does the source list for O=C1CCC(N2C(=O)c3ccccc3C2=O)C(=O)N1 (racemic) [thalidomide, 2-(2,6-dioxo-3-piperidinyl)-1H-isoindole-1,3(2H)-dione]?
dyspnea score [1, 3]: improvements; functional class [1, 3]: improvements; cardiac output [1, 4]: increase; pulmonary arterial pressure [1, 4]: decreases; pulmonary vascular resistance [1, 4]: decreases; 6-minute walk distance, average increase ([1]; after 12 weeks, 400 mg for four weeks then 800 mg for eight weeks, PH patients): 70 meters; 6-minute walk distance, increase ([2]; at 16 weeks, 200 mg bid or 400 mg bid): 36.4 meters; 6-minute walk distance, treatment effect versus placebo ([2]; at 16 weeks, treated minus placebo (7.8 meter reduction)): 44.2 meters; clinical worsening (death, premature withdrawal, hospitalization for worsening of PH or institution of epoprostenol), share of patients ([2]; treated patients, 37% in placebo-treated patients): 11%; functional class ([2]; treated versus placebo patients): improved significantly more
